# According to US20090246276A1, “Pharmaceutical Compositions” (priority 2008, published 2009):
# Counter-ions that a name gives are not always drawn.
# Key:
# [1] = Solubility (37° C.) in 0.1N HCl, pH 4.5, pH 6.8; format: physicochemical; parameters: Solubility (37° C.): unit not given here; settings: for Solubility (37° C.): hydrochloride; for solubility: 37 °C
# [2] = In-vitro dissolution, 900 ml medium (0.1N HCl, pH 4.5 acetate buffer, pH 6.8 or pH 7.5 phosphate buffer), USP Apparatus 1, 75 rpm, 37° C.; format: physicochemical; settings: for % Released (Bi-layer Tablets): Example 16 coated bi-layer tablet; for % Released (Homogenous Tablets): Example 19 tablet; for % Release: 900 ml Phosphate Buffer, pH 7.5, Apparatus 1, 75 rpm, 37 C.
# Protocol: The dissolution profile of the above pharmaceutical composition was determined under the dissolution conditions described below in Tables 1A, 1B, and 1C.
# [3] = Example 22: effect of bupropion (Wellbutrin XL 300 mg) on steady-state pharmacokinetics of citalopram (Celexa 20 mg)
# [4] = steady-state dosing of Celexa 20 mg alone
# [5] = steady-state dosing of Celexa 20 mg plus Wellbutrin XL 300 mg
compound,measurement,setting,value
"CC(NC(C)(C)C)C(=O)c1cccc(Cl)c1 (stereo not drawn) [Bupropion HCl, bupropion hydrochloride]",Solubility (37° C.),[1]; 0.1N HCl,416
same,Solubility (37° C.),[1]; pH 4.5,437
same,Solubility (37° C.),[1]; pH 6.8,437
same,% Released (Bi-layer Tablets),"[2]; 0.1N HCl, 1 hr",16.36%
same,% Released (Bi-layer Tablets),"[2]; 0.1N HCl, 2 hr",33.56%
same,% Released (Bi-layer Tablets),"[2]; 0.1N HCl, 3 hr",49.54%
same,% Released (Bi-layer Tablets),"[2]; 0.1N HCl, 4 hr",65.00%
same,% Released (Bi-layer Tablets),"[2]; 0.1N HCl, 5 hr",79.63%
same,% Released (Bi-layer Tablets),"[2]; 0.1N HCl, 6 hr",88.97%
same,% Released (Bi-layer Tablets),"[2]; 0.1N HCl, 7 hr",94.82%
same,% Released (Bi-layer Tablets),"[2]; 0.1N HCl, 8 hr",97.06%
same,% Released (Homogenous Tablets),"[2]; 0.1N HCl, 1 hr",16.63%
same,% Released (Homogenous Tablets),"[2]; 0.1N HCl, 2 hr",39.40%
same,% Released (Homogenous Tablets),"[2]; 0.1N HCl, 3 hr",60.60%
same,% Released (Homogenous Tablets),"[2]; 0.1N HCl, 4 hr",78.36%
same,% Released (Homogenous Tablets),"[2]; 0.1N HCl, 5 hr",90.30%
same,% Released (Homogenous Tablets),"[2]; 0.1N HCl, 6 hr",96.38%
same,% Released (Homogenous Tablets),"[2]; 0.1N HCl, 7 hr",99.14%
same,% Released (Homogenous Tablets),"[2]; 0.1N HCl, 8 hr",100.26%
"CN(C)CCCC1(c2ccc(F)cc2)OCc2cc(C#N)ccc21 (stereo not drawn) [Citalopram, citalopram]",AUC,"[3]; both, human, in vivo, 20 mg",1220 ng·h/mL
same,Cmax,"[3]; both, human, in vivo, 20 mg",67.9 ng/mL
same,MRT,"[3]; both, human, in vivo, 20 mg",48.6 h
same,Tmax,"[3]; both, human, in vivo, 20 mg",3.96 h
same,Vd/F,"[3]; both, human, in vivo, 20 mg",750 L
same,"CL/F, Mean",[3]; [4],17.66 L/h
same,"Cavg, Mean",[3]; [4],50.8 ng/mL
same,"Cmin, Mean",[3]; [4],39.5 ng/mL
same,"Fluctuation, Mean",[3]; [4],57.22%
same,"Swing, Mean",[3]; [4],75.55%
same,"CL/F, Mean",[3]; [5],11.04 L/h
same,"Cavg, Mean",[3]; [5],78.2 ng/mL
same,"Cmin, Mean",[3]; [5],61.6 ng/mL
same,"Fluctuation, Mean",[3]; [5],48.46%
same,"Swing, Mean",[3]; [5],62.15%
"CNCCC[C@]1(c2ccc(F)cc2)OCc2cc(C#N)ccc21 [Desmethylcitalopram, desmethylcitalopram]","AUC0-τ, Mean",[3]; [4],445.9 ng·h/mL
same,"Cavg, Mean",[3]; [4],18.6 ng/mL
same,"Cmax, Mean",[3]; [4],21.7 ng/mL
same,"Cmin, Mean",[3]; [4],16.3 ng/mL
same,"Fluctuation, Mean",[3]; [4],28.93%
same,"M/P Ratio, Mean",[3]; [4],0.4062
same,"MRT, Mean",[3]; [4],98.54 h
same,"Swing, Mean",[3]; [4],33.09%
same,"Tmax, Mean",[3]; [4],5.46 h
same,"AUC0-τ, Mean",[3]; [5],485.2 ng·h/mL
same,"Cavg, Mean",[3]; [5],20.2 ng/mL
same,"Cmax, Mean",[3]; [5],23.6 ng/mL
same,"Cmin, Mean",[3]; [5],17.3 ng/mL
same,"Fluctuation, Mean",[3]; [5],30.39%
same,"M/P Ratio, Mean",[3]; [5],0.2814
same,"MRT, Mean",[3]; [5],85.78 h
same,"Swing, Mean",[3]; [5],35.98%
same,"Tmax, Mean",[3]; [5],7.12 h
"N#Cc1ccc2c(c1)COC2(CCCN)c1ccc(F)cc1 (stereo not drawn) [Didesmethylcitalopram, didesmethylcitalopram]","AUC0-τ, Mean",[3]; [4],92.04 ng·h/mL
same,"Cavg, Mean",[3]; [4],3.84 ng/mL
same,"Cmax, Mean",[3]; [4],4.40 ng/mL
same,"Cmin, Mean",[3]; [4],3.42 ng/mL
same,"Fluctuation, Mean",[3]; [4],26.43%
same,"M/P Ratio, Mean",[3]; [4],0.09587
same,"MRT, Mean",[3]; [4],258.96 h
same,"Swing, Mean",[3]; [4],29.97%
same,"Tmax, Mean",[3]; [4],6.41 h
"OCCOCCN1CCN(C2=Nc3ccccc3Sc3ccccc32)CC1 [Quetiapine Fumarate, quetiapine fumarate]",solubility,"[1]; 0.1N HCl, simulated gastric fluid",41000 µg/mL
same,solubility,"[1]; pH 4.5, aqueous buffer, pH 4.5",3000 µg/mL
same,solubility,"[1]; pH 6.8, aqueous buffer, pH 6.8",300 µg/mL
same,% Released,"[2]; Example 17 tablet, 0.1N HCl, 1 hr",18%
same,% Released,"[2]; Example 17 tablet, 0.1N HCl, 2 hr",39%
same,% Released,"[2]; Example 17 tablet, 0.1N HCl, 4 hr",69%
same,% Released,"[2]; Example 17 tablet, 0.1N HCl, 8 hr",98%
same,% Released,"[2]; Example 17 tablet, 0.1N HCl, 12 hr",97%
same,% Released,"[2]; Example 17 tablet, 0.1N HCl, 16 hr",96%
same,% Released,"[2]; Example 17 tablet, pH 6.8 phosphate buffer, 1 hr",2%
same,% Released,"[2]; Example 17 tablet, pH 6.8 phosphate buffer, 2 hr",10%
same,% Released,"[2]; Example 17 tablet, pH 6.8 phosphate buffer, 4 hr",41%
same,% Released,"[2]; Example 17 tablet, pH 6.8 phosphate buffer, 8 hr",76%
same,% Released,"[2]; Example 17 tablet, pH 6.8 phosphate buffer, 12 hr",93%
same,% Released,"[2]; Example 17 tablet, pH 6.8 phosphate buffer, 16 hr",95%
"COc1cccc(C2(O)CCCCC2CN(C)C)c1 (stereo not drawn) [Tramadol HCl, tramadol HCl]",% Released,"[2]; Example 20 tablet, 0.1N HCl, 0.5 hr",10%
same,% Released,"[2]; Example 20 tablet, 0.1N HCl, 1 hr",33%
same,% Released,"[2]; Example 20 tablet, 0.1N HCl, 2 hr",73%
same,% Released,"[2]; Example 20 tablet, 0.1N HCl, 3 hr",96%
same,% Released,"[2]; Example 20 tablet, 0.1N HCl, 4 hr",104%
same,% Released,"[2]; Example 20 tablet, 0.1N HCl, 5 hr",106%
same,% Released,"[2]; Example 20 tablet, 0.1N HCl, 6 hr",106%
same,% Released,"[2]; Example 20 tablet, 0.1N HCl, 8 hr",106%
same,% Released,"[2]; Example 20 tablet, 0.1N HCl, 10 hr",105%
same,% Released,"[2]; Example 20 tablet, 0.1N HCl, 12 hr",105%
same,% Released,"[2]; Example 20 tablet, pH 6.8 phosphate buffer, 0.5 hr",9%
same,% Released,"[2]; Example 20 tablet, pH 6.8 phosphate buffer, 1 hr",32%
same,% Released,"[2]; Example 20 tablet, pH 6.8 phosphate buffer, 2 hr",75%
same,% Released,"[2]; Example 20 tablet, pH 6.8 phosphate buffer, 3 hr",98%
same,% Released,"[2]; Example 20 tablet, pH 6.8 phosphate buffer, 4 hr",105%
same,% Released,"[2]; Example 20 tablet, pH 6.8 phosphate buffer, 5 hr",107%
same,% Released,"[2]; Example 20 tablet, pH 6.8 phosphate buffer, 6 hr",107%
same,% Released,"[2]; Example 20 tablet, pH 6.8 phosphate buffer, 8 hr",107%
same,% Released,"[2]; Example 20 tablet, pH 6.8 phosphate buffer, 10 hr",107%
same,% Released,"[2]; Example 20 tablet, pH 6.8 phosphate buffer, 12 hr",107%
same,% Release,"[2]; Example 27 controlled release tablet (batch 1258-171), 2 hrs",51%
same,% Release,"[2]; Example 27 controlled release tablet (batch 1258-171), 4 hrs",70%
same,% Release,"[2]; Example 27 controlled release tablet (batch 1258-171), 8 hrs",96%
same,% Release,"[2]; Example 27 controlled release tablet (batch 1258-171), 10 hrs",100%
same,% Release,"[2]; Example 27 controlled release tablet (batch 1258-171), 16 hrs",100%
same,% Release,"[2]; Example 28 controlled release tablet (batch 1258-175), 2 hrs",0%
same,% Release,"[2]; Example 28 controlled release tablet (batch 1258-175), 4 hrs",7%
same,% Release,"[2]; Example 28 controlled release tablet (batch 1258-175), 8 hrs",61%
same,% Release,"[2]; Example 28 controlled release tablet (batch 1258-175), 10 hrs",74%
same,% Release,"[2]; Example 28 controlled release tablet (batch 1258-175), 16 hrs",84%
same,% Released,"[2]; Example 29 controlled release tablet (batch no. 08070T), 900 ml 0.1N HCl, USP Apparatus 1, 75 rpm, 37° C., 0.5 hr",18%
same,% Released,"[2]; Example 29 controlled release tablet (batch no. 08070T), 900 ml 0.1N HCl, USP Apparatus 1, 75 rpm, 37° C., 1 hr",28%
same,% Released,"[2]; Example 29 controlled release tablet (batch no. 08070T), 900 ml 0.1N HCl, USP Apparatus 1, 75 rpm, 37° C., 2 hr",42%
same,% Released,"[2]; Example 29 controlled release tablet (batch no. 08070T), 900 ml 0.1N HCl, USP Apparatus 1, 75 rpm, 37° C., 3 hr",53%
same,% Released,"[2]; Example 29 controlled release tablet (batch no. 08070T), 900 ml 0.1N HCl, USP Apparatus 1, 75 rpm, 37° C., 4 hr",62%
same,% Released,"[2]; Example 29 controlled release tablet (batch no. 08070T), 900 ml 0.1N HCl, USP Apparatus 1, 75 rpm, 37° C., 5 hr",70%
same,% Released,"[2]; Example 29 controlled release tablet (batch no. 08070T), 900 ml 0.1N HCl, USP Apparatus 1, 75 rpm, 37° C., 6 hr",76%
same,% Released,"[2]; Example 29 controlled release tablet (batch no. 08070T), 900 ml 0.1N HCl, USP Apparatus 1, 75 rpm, 37° C., 8 hr",86%
same,% Released,"[2]; Example 29 controlled release tablet (batch no. 08070T), 900 ml 0.1N HCl, USP Apparatus 1, 75 rpm, 37° C., 10 hr",93%
same,% Released,"[2]; Example 29 controlled release tablet (batch no. 08070T), 900 ml 0.1N HCl, USP Apparatus 1, 75 rpm, 37° C., 12 hr",97%
same,% Released,"[2]; Example 29 controlled release tablet (batch no. 08070T), 900 ml pH 6.8 phosphate buffer, USP Apparatus 1, 75 rpm, 37° C., 0.5 hr",19%
same,% Released,"[2]; Example 29 controlled release tablet (batch no. 08070T), 900 ml pH 6.8 phosphate buffer, USP Apparatus 1, 75 rpm, 37° C., 1 hr",29%
same,% Released,"[2]; Example 29 controlled release tablet (batch no. 08070T), 900 ml pH 6.8 phosphate buffer, USP Apparatus 1, 75 rpm, 37° C., 2 hr",44%
same,% Released,"[2]; Example 29 controlled release tablet (batch no. 08070T), 900 ml pH 6.8 phosphate buffer, USP Apparatus 1, 75 rpm, 37° C., 3 hr",55%
same,% Released,"[2]; Example 29 controlled release tablet (batch no. 08070T), 900 ml pH 6.8 phosphate buffer, USP Apparatus 1, 75 rpm, 37° C., 4 hr",65%
same,% Released,"[2]; Example 29 controlled release tablet (batch no. 08070T), 900 ml pH 6.8 phosphate buffer, USP Apparatus 1, 75 rpm, 37° C., 5 hr",72%
same,% Released,"[2]; Example 29 controlled release tablet (batch no. 08070T), 900 ml pH 6.8 phosphate buffer, USP Apparatus 1, 75 rpm, 37° C., 6 hr",79%
same,% Released,"[2]; Example 29 controlled release tablet (batch no. 08070T), 900 ml pH 6.8 phosphate buffer, USP Apparatus 1, 75 rpm, 37° C., 8 hr",90%
same,% Released,"[2]; Example 29 controlled release tablet (batch no. 08070T), 900 ml pH 6.8 phosphate buffer, USP Apparatus 1, 75 rpm, 37° C., 10 hr",98%
same,% Released,"[2]; Example 29 controlled release tablet (batch no. 08070T), 900 ml pH 6.8 phosphate buffer, USP Apparatus 1, 75 rpm, 37° C., 12 hr",102%
